We go through three compounds from patent US9464064B2, “HCV helicase inhibitors and methods of use thereof” (University of Kansas, priority 2011, dated 2016).

Each structure is given as a SMILES string.

Series [1] addresses T1, HCV NS3 helicase NS3h_1b(con1) (Hepatitis C virus genotype 1b, UniProt Q9WMX2).
T1 construct: truncated C-terminally His-tagged NS3 proteins lacking the N-terminal protease, called NS3h; His-tag (C); made in house
Description: biochemical. It is filed as biochemical, hepatitis C virus genotype 1b(con1). The following applies: for IC50: MBHA, DNA unwinding, mean ± SD of three titrations, read-out: Helicase IC50. From the text:
(§1) All oligonucleotides were purchased from Integrated DNA Technologies (IDT, Coralville, Iowa). The partially duplex DNA substrates used in MBHAs consisted of a helicase substrate forming 25 base pairs and consists of a 45-mer bottom strand 5′-GCTCCCCGTTCATCGATTGGGGAGC(T)20-3′ (SEQ ID NO:1) and the 25-mer HCV top strand 5′-Cy5-GCTCCCCAATCGATGAACGGGGAGC-IBRQ-3′ (SEQ ID NO:2). The 19 base pair RNA substrate used in MBHAs was composed of a 39 nucleotide long bottom strand 5′-AGU GCC UUG ACG AUA CAG C(U)20-3′ (SEQ ID NO:3) and the 24 nucleotide long top strand 5′-Tye^665-AGUGCGCUGUAUCGUCAAGGCACU-IBRQSp-3′ (SEQ ID NO:4). Underlined areas denote hairpin-forming regions. DNA and RNA substrates were annealed and purified as described previously (Belon & Frick (2008) BioTechniques 45:433-40, 442).
The cloning, expression, and purification of His-tagged recombinant HCV NS3 protein have been described previously (Lam, et al. (20030 J. Virol. 77:3950-61; Heck, et al. (2008) Antimicrob. Agents Chemother. 52:1901-11; Frick et al. (2010) Methods Mol. Biol. 587:223-233; Belon, et al. & Frick (2009) J. Mol. Biol. 388:851-864).
(§2) All molecular beacon-based helicase assays (MBHAs) were performed according to known methods (Belon & Frick (2008) supra; Belon & Frick (2009) supra). […] In each flat, black 384-well plate, 56 compounds were tested, in triplicate, along with three negative controls (DMSO only), three positive controls (500 nM dT20), and two wells with no enzyme. Fluorescence was read before ATP (F0) addition and 30 minutes after ATP was added to 1 mM (F30) using a Tecan Infinite M200 fluorescence microplate reader with excitation and emission wavelengths set to 643 and 670 nm, respectively. Percent inhibition was calculated with equation 1, and compound interference in the MBHA was calculated with equation 2.
To monitor helicase reaction kinetics and to calculate IC50 values, MBHAs were performed in 60 μL in white ½ area 96-well plates and measured in a Thermo Varioscan Multimode reader (Thermo Scientific) using the 643 nm excitation wavelength and 667 emission wavelengths. Reactions were again performed by first incubating all components except for ATP for two minutes, then initiated by injecting in 1/10 volume of ATP such that the final concentration of all components was as noted above. Conditions were as described above except that 5% v/v DMSO was present in each assay. Initial reaction velocities were calculated by fitting first-order decay equation to data obtained after ATP addition and calculating an initial velocity form the resulting amplitude and rate constant.
[formula] where, v0 is the velocity observed in DMSO-only controls inhibition, h is the Hillslope coefficient, [I] is the concentration of test compound.

Series [2] addresses T2, HCV helicase (Hepatitis C virus genotype 1b, UniProt Q9WMX2).
T2 construct: truncated C-terminally His-tagged NS3 proteins lacking the N-terminal protease, called NS3h; His-tag (C); made in house
Description: MBHA with RNA substrate (HCV helicase-catalyzed RNA unwinding). Type of series: biochemical. The following applies: in words.
From the text: as §1, §2
To monitor helicase reaction kinetics and to calculate IC50 values, MBHAs were performed in 60 μL in white ½ area 96-well plates and measured in a Thermo Varioscan Multimode reader (Thermo Scientific) using the 643 nm excitation wavelength and 667 emission wavelengths. […] Initial reaction velocities were calculated by fitting first-order decay equation to data obtained after ATP addition and calculating an initial velocity form the resulting amplitude and rate constant.

The target of series [3] is MBHA DNA substrate. In words: Fluorescent intercalation displacement (FID) assay, ethidium bromide. It is filed as binding. The settings on record: FID; mean ± SD; read-out: DNA Binding (Ethidium Bromide) EC50. How it is done:
Fluorescent intercalation displacement (FID) assays (Boger, et al. (2001) J. Am. Chem. Soc. 123:5878-5891) were used to measure the ability of a compound to bind the MBHA substrate. The concentration at which half the ethidium bromide is displaced (EC50) was determined using the different conditions as above to more closely mimic the conditions of a standard helicase assay. Each 100 μL reaction contained 25 mM MOPS pH 6.5, 0.16 μM MBHA DNA substrate (lacking Cy5 and IBQ-RQ modifications), 2 μM ethidium bromide, and various concentrations of test compound. Fluorescence of ethidium bromide was monitored using excitation and emission wavelengths of 545 and 595 nm, respectively, on a Cary Eclipse fluorescence spectrophotometer in white 96-well plates. The amount of ethidium bromide-DNA complex fluorescence was used to estimate the ability of compounds to bind DNA, and therefore displace the fluorescent intercalator (ethidium bromide).
In Equation 4, Fc is the fluorescence in the presence of the compound, F(−) is the average DMSO-only negative controls, and F(+) is the average positive controls (100 μM berenil). EC50 values were from a normalized dose-response curve.
These twelve hits were then subjected to a counterscreen designed to independently identify DNA binding compounds using a modified fluorescent intercalator displacement (FID) assay (Boger, et al. (2001) supra). The FID assay used ethidium bromide to judge a compound's ability to bind DNA and was based on the assumption that a DNA binding compound would displace a fluorescent DNA intercalating agent, leading to an observable decrease in observed fluorescence. Compounds were tested at 1.5 μM in the presence of the 25 base pair substrate used in the helicase assays.

The subject of series [4] is Huh-7.5 cells. Description: Cell viability assay ([…]-GLO). It is filed as cell-based, human. The settings on record: 10 μM. How it is done:
To assess compound toxicity toward Huh-7.5 cells, cells were plated and treated as above and cell viability was assessed using the […]-GLO luminescent cell viability kit (PROMEGA) following the manufacturer's instructions. Briefly, at the end of a 72 hour incubation period, the medium was aspirated and the cells were washed with 1×PBS, then an equal volume of growth medium and […]-GLO reagent was added and the lysis was initiated by mixing on an orbital shaker. The plate was incubated at 23° C. for 30 minutes and the luciferase activity was measured for 1 second using the FLUOSTAR Omega microplate reader (BMG Labtech).

For series [5], the target named is T3, NS3h_1b(con1) (Hepatitis C virus genotype 1b, UniProt Q9WMX2).
T3 construct: truncated C-terminally His-tagged NS3 proteins lacking the N-terminal protease, called NS3h; His-tag (C); made in house
T3 sequence (Q9WMX2 1192-1657): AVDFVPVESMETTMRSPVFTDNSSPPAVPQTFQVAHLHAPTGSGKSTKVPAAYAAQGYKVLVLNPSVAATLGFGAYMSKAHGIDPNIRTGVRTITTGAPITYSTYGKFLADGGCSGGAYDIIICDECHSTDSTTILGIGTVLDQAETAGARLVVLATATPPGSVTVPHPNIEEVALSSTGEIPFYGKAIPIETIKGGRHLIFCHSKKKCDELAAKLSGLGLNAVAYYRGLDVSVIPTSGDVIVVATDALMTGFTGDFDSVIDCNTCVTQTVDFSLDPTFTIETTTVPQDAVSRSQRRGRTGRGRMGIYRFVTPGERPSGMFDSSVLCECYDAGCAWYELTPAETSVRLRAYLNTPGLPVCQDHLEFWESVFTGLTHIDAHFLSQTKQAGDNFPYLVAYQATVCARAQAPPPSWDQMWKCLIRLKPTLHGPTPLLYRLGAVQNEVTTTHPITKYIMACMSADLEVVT
Description: ATP hydrolysis assay (malachite green). Type of series: biochemical. Here is the method:
A modified “malachite green” assay (Lanzetta, et al. (1979) Anal. Biochem. 100:95-97) was used to measure ATP hydrolysis. Fifty μL reactions contained 25 mM MOPS pH 6.5, 5 mM MgCl2, 2 mM ATP, 5 μg/mL BSA, 0.01% (v/v) TWEEN 20, 0.05 mM DTT, and poly(U) RNA (Saint Louis, Mo.) as indicated. Reactions were initiated by adding NS3h_1b(con1). Reactions were incubated for 15 minutes at 37° C. then stopped by mixing 40 μL of the reaction into 200 μL of the malachite green reagent (3 volumes 0.045% (w/v) malachite green, 1 volume 4.2% ammonium molybdate in 4N HCl, 0.05 volume of 20% TWEEN 20). […] Absorbance at 630 nm was proportional to the concentration of phosphate produced; free phosphate produced was measured against a standard curve.

Series [6] concerns MBHA DNA substrate. In words: Modified FID assay, SYBR Green I. The following applies: FID; mean ± SD; read-out: DNA Binding (SYBR Green I) EC50. It is filed as binding. Here is the method: A modified FID assay, in which ethidium bromide was replaced with SYBR Green I (Invitrogen), was used to estimate a compounds affinity for the MBHA substrate. Reactions were performed as described above except that the DNA substrate was present at 0.32 μM, ethidium bromide was absent, and SYBER Green was present at (0.68 μM). Data were normalized as described above and fit to concentration-response equation using GraphPad Prism software. Titrations with each compound were performed in triplicate, and EC50 values from three independent titrations are reported ±standard deviations.

T1 sequence (Q9WMX2 1192-1657): as above
T2 sequence (Q9WMX2 1192-1657): as above

On to `CO[C@@H]1[C@H](O)C[C@@H](O[C@@H]2C[C@H](Oc3cc4cc5c(c(O)c4c(O)c3C)C(=O)[C@@H](O[C@H]3C[C@@H](O[C@H]4C[C@@H](O[C@H]6C[C@](C)(O)[C@@H](OC(C)=O)[C@H](C)O6)[C@H](O)[C@@H](C)O4)[C@H](O)[C@@H](C)O3)[C@H]([C@H](OC)C(=O)[C@@H](O)[C@@H](C)O)C5)O[C@H](C)[C@@H]2OC(C)=O)O[C@@H]1C` [Chromomycin A3, reference compound], for which the IC50 in series [1] turned out to be 0.15 ± 0.03 µM. Besides, in series [2], the “effect on HCV helicase catalyzed RNA unwinding” value is on record as “no effect”.
As for `CCOc1ccc2c(NNC(=O)c3cnccn3)c3c(nc2c1)CCCC3` [Compound 1, reference compound], the IC50 in series [1] and in series [5] was above 100 µM throughout. The 50% effective concentration (EC50) in series [3] and in series [6] was above 100 µM throughout. Besides, in series [4], the toxicity to cells result was “None of the comparison helicase inhibitors were particularly toxic at 10 μM except for 1”.
For `Cc1ccc2c(c1)sc(-c1ccc(N(C)C)cc1)[n+]2C.[Cl-]` [thioflavine T, reference compound], the “effect on HCV helicase catalyzed DNA unwinding” value in series [1] (in words) is “no effect”. The “effect on HCV helicase catalyzed RNA unwinding” value in series [2] was “no effect”.

The term IC50 denotes the concentration that gives 50% inhibition. For orientation: EC50 means the concentration giving half of the maximal effect.
